Results published in the NIST ThermoML archive (doi:10.1016/j.jct.2013.10.031).
Numbers after ± are expanded uncertainties.

Test: wn = mass fraction of the nth substance listed
Settings: Gas, Burnett expansion method

FCC(F)(F)F [1,1,1,2-tetrafluoroethane] + CCC
Settings | mass density [kg/m3]
291.04 K, 382.5 kPa, w2 = 0.6 | 9.6512 ± 0.55
291.04 K, 497.9 kPa, w2 = 0.6 | 12.8332 ± 0.57
291.04 K, 818.1 kPa, w2 = 0.6 | 22.6914 ± 0.67
291.06 K, 178.7 kPa, w2 = 0.65 | 4.1993 ± 0.49
291.06 K, 235.4 kPa, w2 = 0.65 | 5.5839 ± 0.5
291.06 K, 309.1 kPa, w2 = 0.65 | 7.425 ± 0.51
291.06 K, 404.2 kPa, w2 = 0.65 | 9.8733 ± 0.53
291.06 K, 525 kPa, w2 = 0.65 | 13.1287 ± 0.57
291.06 K, 642.6 kPa, w2 = 0.6 | 17.0639 ± 0.63
291.08 K, 675.9 kPa, w2 = 0.65 | 17.4564 ± 0.6
291.99 K, 927 kPa, w2 = 0.5 | 28.4165 ± 0.77
292 K, 732.8 kPa, w2 = 0.5 | 21.3324 ± 0.72
292.01 K, 193.1 kPa, w2 = 0.5 | 5.0866 ± 0.55
292.01 K, 254.3 kPa, w2 = 0.5 | 6.7756 ± 0.56
292.01 K, 334.3 kPa, w2 = 0.5 | 9.02529 ± 0.58
292.01 K, 437.9 kPa, w2 = 0.5 | 12.0223 ± 0.6
292.01 K, 569.6 kPa, w2 = 0.5 | 16.0141 ± 0.64
292.03 K, 202.8 kPa, w2 = 0.4 | 5.83306 ± 0.61
292.03 K, 587.9 kPa, w2 = 0.4 | 18.3639 ± 0.73
292.03 K, 753.1 kPa, w2 = 0.4 | 24.4617 ± 0.81
292.03 K, 950.3 kPa, w2 = 0.4 | 32.5844 ± 0.86
292.04 K, 266.5 kPa, w2 = 0.4 | 7.76977 ± 0.62
292.04 K, 348.8 kPa, w2 = 0.4 | 10.3497 ± 0.65
292.04 K, 454.4 kPa, w2 = 0.4 | 13.7862 ± 0.68
292.1 K, 669.6 kPa, w2 = 0.45 | 20.2125 ± 0.72
292.1 K, 852.9 kPa, w2 = 0.45 | 26.9241 ± 0.77
292.11 K, 399.4 kPa, w2 = 0.45 | 11.3911 ± 0.63
292.11 K, 519.4 kPa, w2 = 0.45 | 15.1737 ± 0.67
292.12 K, 176.3 kPa, w2 = 0.45 | 4.81956 ± 0.57
292.12 K, 232.3 kPa, w2 = 0.45 | 6.41979 ± 0.58
292.12 K, 305.2 kPa, w2 = 0.45 | 8.55159 ± 0.6
295.06 K, 496 kPa, w2 = 0.6 | 12.529 ± 0.56
295.06 K, 537 kPa, w2 = 0.55 | 14.2738 ± 0.6
295.06 K, 692.2 kPa, w2 = 0.55 | 18.98 ± 0.66
295.06 K, 881.4 kPa, w2 = 0.55 | 25.2378 ± 0.7
295.07 K, 315.8 kPa, w2 = 0.55 | 8.0723 ± 0.54
295.07 K, 641.4 kPa, w2 = 0.6 | 16.6596 ± 0.61
295.07 K, 820 kPa, w2 = 0.6 | 22.1527 ± 0.65
295.08 K, 167 kPa, w2 = 0.6 | 4.0072 ± 0.49
295.08 K, 220.6 kPa, w2 = 0.6 | 5.3286 ± 0.5
295.08 K, 240.3 kPa, w2 = 0.55 | 6.0706 ± 0.53
295.08 K, 380.5 kPa, w2 = 0.6 | 9.4217 ± 0.53
295.08 K, 413.2 kPa, w2 = 0.55 | 10.7336 ± 0.57
295.08 K, 929.7 kPa, w2 = 0.65 | 25.1362 ± 0.67
295.09 K, 290.3 kPa, w2 = 0.6 | 7.0853 ± 0.51
295.09 K, 571.2 kPa, w2 = 0.65 | 14.2158 ± 0.57
295.09 K, 733.9 kPa, w2 = 0.65 | 18.9032 ± 0.63
295.1 K, 440.4 kPa, w2 = 0.65 | 10.6904 ± 0.54
295.11 K, 337.1 kPa, w2 = 0.65 | 8.0394 ± 0.51
295.12 K, 195 kPa, w2 = 0.65 | 4.5466 ± 0.49
295.12 K, 256.9 kPa, w2 = 0.65 | 6.0457 ± 0.49
296.03 K, 914.3 kPa, w2 = 0.45 | 28.6491 ± 0.77
296.04 K, 429.5 kPa, w2 = 0.45 | 12.1212 ± 0.62
296.04 K, 558.2 kPa, w2 = 0.45 | 16.146 ± 0.66
296.04 K, 718.9 kPa, w2 = 0.45 | 21.5073 ± 0.73
296.05 K, 189.8 kPa, w2 = 0.45 | 5.12847 ± 0.56
296.05 K, 250.1 kPa, w2 = 0.45 | 6.83136 ± 0.58
296.05 K, 328.4 kPa, w2 = 0.45 | 9.09958 ± 0.59
296.06 K, 874.4 kPa, w2 = 0.5 | 25.9625 ± 0.72
296.07 K, 179.9 kPa, w2 = 0.5 | 4.64758 ± 0.54
296.07 K, 236.8 kPa, w2 = 0.5 | 6.1908 ± 0.55
296.07 K, 407 kPa, w2 = 0.5 | 10.9846 ± 0.58
296.07 K, 529.9 kPa, w2 = 0.5 | 14.6321 ± 0.62
296.07 K, 684.5 kPa, w2 = 0.5 | 19.4905 ± 0.68
296.15 K, 854.3 kPa, w2 = 0.4 | 27.6875 ± 0.83
296.15 K, 1071.2 kPa, w2 = 0.4 | 36.8808 ± 0.9
296.16 K, 518.5 kPa, w2 = 0.4 | 15.6041 ± 0.68
296.16 K, 669.4 kPa, w2 = 0.4 | 20.7854 ± 0.74
296.17 K, 231.5 kPa, w2 = 0.4 | 6.60203 ± 0.6
296.17 K, 304.4 kPa, w2 = 0.4 | 8.79413 ± 0.62
296.17 K, 398.4 kPa, w2 = 0.4 | 11.7141 ± 0.64
297.08 K, 311 kPa, w2 = 0.5 | 8.24631 ± 0.56
299.03 K, 1039.9 kPa, w2 = 0.55 | 30.269 ± 0.74
299.04 K, 190.4 kPa, w2 = 0.6 | 4.5212 ± 0.49
299.04 K, 220.4 kPa, w2 = 0.55 | 5.4755 ± 0.52
299.04 K, 251 kPa, w2 = 0.6 | 6.0118 ± 0.5
299.04 K, 290.2 kPa, w2 = 0.55 | 7.2808 ± 0.53
299.04 K, 330.1 kPa, w2 = 0.6 | 7.994 ± 0.51
299.04 K, 380.6 kPa, w2 = 0.55 | 9.6815 ± 0.55
299.04 K, 432.1 kPa, w2 = 0.6 | 10.6297 ± 0.54
299.04 K, 496.4 kPa, w2 = 0.55 | 12.8736 ± 0.58
299.04 K, 561.9 kPa, w2 = 0.6 | 14.1346 ± 0.57
299.04 K, 724.4 kPa, w2 = 0.6 | 18.7949 ± 0.62
299.04 K, 824.2 kPa, w2 = 0.55 | 22.7626 ± 0.69
299.05 K, 180.8 kPa, w2 = 0.65 | 4.1345 ± 0.47
299.05 K, 238.4 kPa, w2 = 0.65 | 5.4977 ± 0.48
299.05 K, 313.5 kPa, w2 = 0.65 | 7.3105 ± 0.49
299.05 K, 410.5 kPa, w2 = 0.65 | 9.7208 ± 0.52
299.05 K, 534.3 kPa, w2 = 0.65 | 12.9262 ± 0.55
299.05 K, 642.9 kPa, w2 = 0.55 | 17.1183 ± 0.62
299.06 K, 689.6 kPa, w2 = 0.65 | 17.1876 ± 0.59
299.06 K, 880.4 kPa, w2 = 0.65 | 22.8543 ± 0.62
299.06 K, 922.6 kPa, w2 = 0.6 | 24.9906 ± 0.66
299.92 K, 198.1 kPa, w2 = 0.5 | 5.06523 ± 0.54
299.92 K, 261.1 kPa, w2 = 0.5 | 6.74709 ± 0.54
299.92 K, 343.5 kPa, w2 = 0.5 | 8.9873 ± 0.56
299.92 K, 449.9 kPa, w2 = 0.5 | 11.9714 ± 0.58
299.92 K, 585.2 kPa, w2 = 0.5 | 15.9465 ± 0.62
299.92 K, 754.7 kPa, w2 = 0.5 | 21.2412 ± 0.68
299.93 K, 961.3 kPa, w2 = 0.5 | 28.294 ± 0.76
300.04 K, 162.1 kPa, w2 = 0.4 | 4.47962 ± 0.58
300.04 K, 213.8 kPa, w2 = 0.4 | 5.96699 ± 0.58
300.04 K, 369.1 kPa, w2 = 0.4 | 10.5874 ± 0.62
300.04 K, 481.6 kPa, w2 = 0.4 | 14.1031 ± 0.65
300.04 K, 624.3 kPa, w2 = 0.4 | 18.786 ± 0.7
300.04 K, 801.2 kPa, w2 = 0.4 | 25.0237 ± 0.77
300.04 K, 1014.7 kPa, w2 = 0.4 | 33.3323 ± 0.82
300.05 K, 281.4 kPa, w2 = 0.4 | 7.94819 ± 0.6
300.28 K, 1155.2 kPa, w2 = 0.45 | 37.6831 ± 0.87
300.3 K, 250.1 kPa, w2 = 0.45 | 6.74559 ± 0.58
300.3 K, 328.7 kPa, w2 = 0.45 | 8.98533 ± 0.58
300.3 K, 430.2 kPa, w2 = 0.45 | 11.9689 ± 0.61
300.3 K, 560 kPa, w2 = 0.45 | 15.9432 ± 0.65
300.3 K, 722.6 kPa, w2 = 0.45 | 21.2369 ± 0.7
300.3 K, 921.7 kPa, w2 = 0.45 | 28.2885 ± 0.8
303 K, 206 kPa, w2 = 0.65 | 4.6675 ± 0.47
303 K, 271.6 kPa, w2 = 0.65 | 6.2064 ± 0.48
303 K, 356.7 kPa, w2 = 0.65 | 8.2528 ± 0.49
303 K, 466.3 kPa, w2 = 0.65 | 10.974 ± 0.52
303 K, 605.7 kPa, w2 = 0.65 | 14.5921 ± 0.55
303.01 K, 228 kPa, w2 = 0.55 | 5.5856 ± 0.51
303.01 K, 513.7 kPa, w2 = 0.55 | 13.1325 ± 0.56
303.01 K, 665.4 kPa, w2 = 0.55 | 17.4628 ± 0.61
303.01 K, 780 kPa, w2 = 0.65 | 19.4028 ± 0.6
303.01 K, 853.2 kPa, w2 = 0.55 | 23.2201 ± 0.68
303.02 K, 300.2 kPa, w2 = 0.55 | 7.4272 ± 0.52
303.02 K, 393.7 kPa, w2 = 0.55 | 9.876 ± 0.54
303.02 K, 1078.8 kPa, w2 = 0.55 | 30.8763 ± 0.69
303.03 K, 991 kPa, w2 = 0.65 | 25.7988 ± 0.64
303.1 K, 231.6 kPa, w2 = 0.6 | 5.4683 ± 0.49
303.1 K, 304.9 kPa, w2 = 0.6 | 7.2713 ± 0.5
303.1 K, 399.8 kPa, w2 = 0.6 | 9.6687 ± 0.52
303.1 K, 521.7 kPa, w2 = 0.6 | 12.8566 ± 0.55
303.1 K, 675.5 kPa, w2 = 0.6 | 17.0956 ± 0.59
303.1 K, 865.6 kPa, w2 = 0.6 | 22.7325 ± 0.66
303.11 K, 1092.1 kPa, w2 = 0.6 | 30.2268 ± 0.71
304.1 K, 860.4 kPa, w2 = 0.4 | 26.6525 ± 0.78
304.1 K, 1087.7 kPa, w2 = 0.4 | 35.5024 ± 0.83
304.11 K, 174.8 kPa, w2 = 0.4 | 4.77108 ± 0.57
304.11 K, 397.4 kPa, w2 = 0.4 | 11.2764 ± 0.62
304.11 K, 518.4 kPa, w2 = 0.4 | 15.0206 ± 0.65
304.11 K, 671.1 kPa, w2 = 0.4 | 20.0084 ± 0.7
304.12 K, 230.5 kPa, w2 = 0.4 | 6.35521 ± 0.58
304.12 K, 303.2 kPa, w2 = 0.4 | 8.46542 ± 0.59
304.18 K, 860.4 kPa, w2 = 0.5 | 24.4745 ± 0.71
304.19 K, 302.4 kPa, w2 = 0.5 | 7.77376 ± 0.55
304.19 K, 396.5 kPa, w2 = 0.5 | 10.3551 ± 0.57
304.19 K, 517.4 kPa, w2 = 0.5 | 13.7935 ± 0.6
304.19 K, 670.5 kPa, w2 = 0.5 | 18.3734 ± 0.64
304.19 K, 1088.7 kPa, w2 = 0.5 | 32.6005 ± 0.78
304.23 K, 1142.8 kPa, w2 = 0.45 | 36.7316 ± 0.82
304.24 K, 907.2 kPa, w2 = 0.45 | 27.5748 ± 0.78
304.25 K, 248 kPa, w2 = 0.45 | 6.57513 ± 0.57
